Measured values reported in publication PMC6627744, “A Tiny Change Makes a Big Difference in the Anti-Parasitic Activities of an HDAC Inhibitor” (International Journal of Molecular Sciences, 2019).
Read-outs that look alike come from different tables or passages of the source.

Experiments:
[1] = tested on: RH type I strain of T. gondii; assay: Anti-T. gondii activity in infected HFF monolayers, type I strain; format: cell-based, Toxoplasma gondii
Protocol: (§1) Confluent Human Foreskin Fibroblast (HFF) monolayers were infected with YFP-type I Rh kindly provided by B. Striepen or Tomato-type II Pru kindly provided by Professor N. Blanchard (Toulouse), at 5 × 10^4 parasites per well. They were then centrifuged for 30 s at 250 g and incubated for 30 min in a water bath at 37 °C to allow invasion. The wells were washed three times with PBS to eliminate extracellular parasites, and the drugs were added at concentrations ranging from 0.01 to 3.0 μM. After incubation for 24 h at 37 °C in a humidified atmosphere containing 5% CO2, the cells were fixed in 2.5% methanol-free formaldehyde (Tebu-bio, Le Perray-en-Yvelines, France)/PBS for 30 min at room temperature. Nuclei were stained with Hoechst 33258 (2 µg/mL, Molecular Probes) for 20 min and washed three times with water. The number of infected cells, i.e., cells harboring a parasitophorous vacuole (see supplementary data S3 for an example), and the number of parasites per vacuole were determined using an Olympus ScanR microscope (×20 objective) and ScanR software. The parasitic index in % compared to the control was calculated as follows: [Parasitic index (PI) = ((number of parasite/100 cells in treated wells) × (% of infected macrophage in treated well)/(number of parasite/100 cells in untreated wells) × (% of infected macrophage in untreated wells)) × 100].

[2] = tested on: Pru type II strain of T. gondii; assay: Anti-T. gondii activity in infected HFF monolayers, type II strain; format: cell-based; settings: Toxoplasma gondii, 24 h, read-out: IC50, inhibition of T. gondii type II strain
Protocol: as §1

[3] = tested on: RH type I strain of T. gondii; set-up: method as in PMID 29414107; settings: cited from earlier work
[4] = tested on: Pru type II strain of T. gondii; set-up: method as in PMID 29414107; settings: read-out: IC50, inhibition of T. gondii type II strain; cited from earlier work
[5] = tested on: HeLa cell nuclear extract, which contains mainly HDACs 1, 2, 6, and 8; assay: HDAC inhibition, HeLa nuclear extract (fluorometric HDAC assay kit); format: biochemical, human; settings: HeLa nuclear extracts; ratio of IC50 versus 363
Protocol: (§2) The HDACi effect against HeLa nuclear extracts and recombinant proteins were measured using a fluorometric HDAC assay kit (Active Motif, La Hulpe, Belgium) according to the manufacturer’s instructions. Briefly, 30 μL of HeLa nuclear extract (Active Motif, Belgium) or HDAC 1 recombinant protein (Active Motif, Belgium) were mixed with 5 μL of a 10× compound and 10 μL of assay buffer. A positive control, containing trichostatin A at a final concentration of 2 μM, was analyzed for each independent experiment. A fluorogenic substrate (10 μL) was added, and the reaction was allowed to proceed for 30 min at room temperature and then stopped by the addition of a developer containing trichostatin A. The fluorescence was monitored after 30 min at excitation and emission wavelengths of 360 and 460 nm, respectively.

recombinant HDAC1 enzyme = target: T1, recombinant HDAC1 enzyme (Homo sapiens, UniProt Q13547); assay: HDAC inhibition, recombinant HDAC1 (fluorometric HDAC assay kit); format: biochemical; settings: Figure 1B
T1 construct: purchased Active Motif
T1 sequence (Q13547 whole entry): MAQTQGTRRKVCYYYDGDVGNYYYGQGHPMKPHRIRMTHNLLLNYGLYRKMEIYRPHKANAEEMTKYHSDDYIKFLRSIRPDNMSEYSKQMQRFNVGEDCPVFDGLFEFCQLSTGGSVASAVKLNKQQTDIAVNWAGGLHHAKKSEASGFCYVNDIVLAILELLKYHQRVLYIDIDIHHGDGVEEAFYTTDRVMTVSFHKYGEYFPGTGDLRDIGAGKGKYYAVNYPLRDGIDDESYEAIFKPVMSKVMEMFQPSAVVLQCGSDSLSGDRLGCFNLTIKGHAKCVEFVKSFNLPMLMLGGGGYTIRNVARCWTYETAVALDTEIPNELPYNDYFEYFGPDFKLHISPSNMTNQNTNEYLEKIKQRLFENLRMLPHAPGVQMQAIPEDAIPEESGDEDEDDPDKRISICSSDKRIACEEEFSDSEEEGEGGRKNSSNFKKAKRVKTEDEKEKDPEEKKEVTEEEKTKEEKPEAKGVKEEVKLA
Protocol: as §2

T. gondii = assay: Anti-T. gondii activity in infected HFF monolayers, strain not given; format: cell-based, Toxoplasma gondii
Protocol: as §1

What does the source list for COc1cccc(CC(=O)Nc2ccc(C(=O)NO)cc2)c1 [Compound 363, N-hydroxy-4-[2-(3-methoxyphenyl)acetamido]benzamide]?
IC50 ([1]; Toxoplasma gondii, type I (RH) strain, HFF, 24 h, read-out: IC50, inhibition of T. gondii type I strain): 153 nM; fold higher susceptibility of type I strains than type II strains ([1]; type I versus type II, this work): 5.5 fold; IC50 [2]: 853 nM; IC50 ([3]; type I strain, read-out: IC50, inhibition of T. gondii type I strain): 350 nM; fold higher susceptibility of type I strains than type II strains ([3]; type I versus type II): 6 fold; IC50 [4]: 2270 nM

For COc1ccccc1CNC(=O)c1ccc(C(=O)NO)cc1 [Compound D16, 1-N-hydroxy-4-N-[(2-methoxyphenyl)methyl]benzene-1,4-dicarboxamide], which “fold less efficient in HDACi activity compared to 363” value [5] is on record?
Its value is 13 fold.

What about the “potency on deacetylase activity of recombinant HDAC1, compared to 363” value (recombinant HDAC1 enzyme) of the same molecule?
Its value is “lower potency”.

What about the anti-parasitic activity (T. gondii; even at concentrations higher than 1000 nM, RH type I and Pru type II strains (Figure 1C)) of the same molecule?
Its anti-parasitic activity is “No anti-parasitic activity”.

With CCc1nc(N)nc(N)c1-c1ccc(Cl)cc1 [Pyrimethamine, reference compound] as the molecule, how does the IC50 (T. gondii; Toxoplasma gondii, positive control, strain not stated) read?
The IC50 was 453 nM.
